# Laboratory results as given in patent US20110052776A1, “CHOCOLATE COMPOSITIONS HAVING IMPROVED FLAVOUR CHARACTERISTICS” (priority 2007, published 2011).
# Experiments:
# expert panel members [1] = experiment: Sucrose Equivalent Value (SEV) of pH 3.2 buffered sucrose solution, taste panel; type: in vivo; conditions: for SEV (%): 500 ppm of one potentiator in pH 3.2 buffered 5% sucrose solution; for effect on SEV of sucrose solutions, forms of 2,4-DHB: 500 ppm, pH 3.2 buffered solutions with 0%, 3%, 5%, 7% and 9% sucrose; for maximum sweetness attainable (SEV): pH 3.2 buffered 5% sucrose solution, dose response curve 0 to 1000 ppm; for SEV of solution containing 500 ppm 2,4-DHB and 500 ppm of a second sweetener potentiator: label = second potentiator, 5% sucrose solution
# Experimental: (§1) One method of measuring the perceived sweetness of a solution is to match it with a stock sucrose solution of known concentration. In the present experiments, the compound of interest is added at a predetermined concentration to a pH 3.2 buffered solution containing 5% sucrose. A number of expert panel members then taste the solution and compare it to a battery of stock sucrose solutions ranging from 3% to 15% at increments of 1%. Each panel member decides which sucrose solution is equisweet with the solution containing the compound of interest. The mean value is then reported as the SEV. Results are reported to 1 decimal place.
# In accordance with this methodology, 3-HB was added to a pH 3.2 buffered solution containing 5% sucrose to produce solutions containing from 0 to 1000 ppm 3-HB in 100 ppm increments. […] From FIG. 1 it is apparent that as the dosage of 3-HB increases so does the sweetness of the resultant solution. However the effect is non-linear with each incremental addition having a diminishing effect. The maximum sweetness attainable would appear to be about 7.9% SEV (based on a 5% sucrose solution).
# The same methodology as described in Example 6 was repeated with 2,4-DHB in place of 3-HB, to produce the dose response curve for 2,4-DHB (FIG. 2). […] The maximum attainable sweetness would appear to be about 6.7% SEV (based on a 5% sucrose solution).
# 500 ppm of a sweetener potentiator was added to a pH 3.2 buffered solution containing 5% sucrose and the SEV of the resultant solution determined.
# 500 ppm of the sweetener potentiator then was added to a 5% sucrose solution containing 500 ppm 3-HB to produce a series of solutions. […] The use of 500 ppm of 3-HB alone results in an SEV of 6.9% whereas in all cases but two (2,4-DHB and 3,4-DHB) the addition of a second sweetener potentiator results in a little change or even a decrease in SEV. This is highly surprising considering that all of the potentiators are shown to have SEVs greater than 5%.
# The methodology was repeated to produce a series of solutions containing 500 ppm 2,4-DHB and 500 ppm of a second sweetener potentiator.
# 500 ppm of 3-HB, 500 ppm of 2,4-DHB and 500 ppm of 3,4-dihydroxybenzoic acid (3,4-DHB) were added to a pH 3.2 buffered solution containing 5% sucrose and the SEV determined. The results are shown in FIG. 7 together with other combinations of 3-HB, 2,4-DHB and 3,4-DHB for comparison. The solution containing the combination of 3-HB and 2,4-DHB (hatched) has a much higher SEV (8.7%) than the combination of either 3,4-DHB and 3-HB (7.6%) or the combination of 3,4-DHB and 2,4-DHB (6.8%). The three-way combination of the embodiment (hatched) is better still with an SEV of 9.8%.
# Buffered solutions of pH 3.2 were prepared containing 0%, 3%, 5%, 7% and 9% sucrose. 500 ppm of 2,4-DHB acid, 500 ppm of the sodium salt of 2,4-DHB and 500 ppm of the potassium salt of 2,4-DHB were added individually to each of the sucrose solutions. The SEV for each of the solutions was then determined.
# 500 ppm of 3-aminobenzoic acid and 500 ppm of 4-aminobenzoic acid were individually added to separate pH 3.2 buffered solutions containing 5% sucrose and the SEVs of the resultant solutions were determined. The SEV of 3-aminobenzoic acid was about 7%, i.e., increased the sweetness intensity of 5% sucrose to about 7%. The SEV of 4-aminobenzoic acid was about 5.5-6%, i.e., increased the sweetness intensity of 5% sucrose to about 5.5-6%.
# [2] = cited from earlier work
# panel member = experiment: Sucrose reduction method versus 10% sucrose control, taste panel; type: in vivo; conditions: 1000 ppm used individually; control pH 3.2 10% sucrose
# Experimental: An alternative method of measuring perceived sweetness is to determine how much sucrose can be replaced through the use of the compound of interest without any Perceived loss of sweetness. In the present experiments the control was a pH 3.2 buffered solution containing 10% sucrose. The compound of interest is added at a predetermined concentration to a number of sucrose solutions containing from 5% to 10% sucrose at increments of 0.5%. Each panel member tastes each of the solutions, compares it to the control sample and decides which solutions are equisweet. For example, if the 8% sucrose solution containing the compound of interest is equisweet with the control, then the sucrose reduction achieved by the compound of interest is 20%.
# A series of sucrose solutions were prepared containing 3-HB and 2,4-DHB at a combined concentration of 1000 ppm. Each solution was evaluated using the sucrose reduction method described above to determine how much sucrose could be replaced without noticeable loss of sweetness.
# A series of sucrose solutions were prepared containing equal quantities of 3-HB and 2,4-DHB, at a combined concentration of 200, 400, 600, 800 and 1000 ppm. Each solution was evaluated using the sucrose reduction method described in Example 8 above to determine how much sucrose could be replaced without noticeable loss of sweetness.
# expert panel members [3] = experiment: SEV of non-sucrose sweetener solutions (SEV about 5%) after addition of potentiators; type: in vivo; conditions: 500 ppm 3-HB alone versus with 500 ppm 2,4-DHB; pH 3.2
# Experimental: as §1
# The SEV of each sweetener solution was then evaluated after the addition 500 ppm of 3-HB, the addition of 500 ppm of 2,4-DHB and the addition of both 500 ppm 3-HB and 2,4-DHB.
structure (smiles),measurement,setting,value
"O=C(O)c1ccc(O)c(O)c1O [2,3,4-trihydroxybenzoic acid (2,3,4-THB), 2,3,4-trihydroxybenzoic acid]",SEV (%),expert panel members [1],5.4%
"O=C(O)c1cc(O)ccc1O [2,5-dihydroxybenzoic acid (2,5-DHB), 2,5-dihydroxybenzoic acid]",SEV (%),expert panel members [1],5.3%
"O=C(O)c1cc(O)c(O)c(O)c1 [3,4,5-tryhydroxybenzoic acid (3,4,5-THB), 3,4,5-tryhydroxybenzoic acid]",SEV (%),expert panel members [1],5.1%
"O=C(O)c1ccc(O)cc1O [2,4-DHB, 2,4-dihydroxybenzoic acid]",effect on the sweetness intensity of both sucralose and aspartame,"[2]; FIGS. 1 and 2 and Tables 1 and 2 of U.S. Pat. No. 6,461,658",slightly inhibitory effect
same,length of time during which sucralose sweetness is perceived,"[2]; U.S. Pat. No. 6,461,658",significantly reducing
same,effect on sweetness of a 5% sucrose solution,"[2]; addition of 0.2% 2,4-DHB, Canadian Patent No. 1208966",increase in sweetness
same,SEV,expert panel members [1]; 400 ppm in pH 3.2 buffered 5% sucrose solution,6.5%
same,SEV (%),expert panel members [1],6.5%
same,"effect on SEV of sucrose solutions, forms of 2,4-DHB",expert panel members [1],enhances the sweetness of the sucrose solution in every case
same,SEV,expert panel members [1]; 1000 ppm in pH 3.2 buffered 5% sucrose solution,6.7%
same,maximum sweetness attainable (SEV),expert panel members [1],about 6.7 % SEV
same,sucrose reduction,panel member,15%
"O=C([O-])c1ccc(O)cc1O.[Na+] [sodium salt of 2,4-DHB]","effect on SEV of sucrose solutions, forms of 2,4-DHB",expert panel members [1],enhances the sweetness of the sucrose solution in every case
"O=C(O)c1c(O)cc(O)cc1O [2,4,6-trihydroxybenzoic acid (2,4,6-THB), 2,4,6-trihydroxybenzoic acid]",SEV (%),expert panel members [1],5.4%
"O=C(O)c1ccc(O)c(O)c1 [3,4-dihydroxybenzoic acid (3,4-DHB), 3,4-dihydroxybenzoic acid]",SEV (%),expert panel members [1],6.4%
"O=C(O)c1ccccc1O [2-hydroxybenzoic acid (2-HB), 2-hydroxybenzoic acid]",SEV (%),expert panel members [1],5.6%
same,"SEV of solution containing 500 ppm 2,4-DHB and 500 ppm of a second sweetener potentiator",expert panel members [1],6.3%
Nc1ccc(C(=O)O)cc1 [4-aminobenzoic acid],SEV (%),expert panel members [1],5.5-6%
"O=C([O-])c1ccc(O)cc1O.[K+] [potassium salt of 2,4-DHB]","effect on SEV of sucrose solutions, forms of 2,4-DHB",expert panel members [1],enhances the sweetness of the sucrose solution in every case
"O=C(O)c1cccc(O)c1O [2,3-dihydroxybenzoic acid (2,3-DHB), 2,3-dihydroxybenzoic acid]",SEV (%),expert panel members [1],6.3%
"O=C(O)c1c(O)cccc1O [2,6-dihydroxybenzoic acid (2,6-DHB), 2,6-dihydroxybenzoic acid]",SEV (%),expert panel members [1],5.3%
"O=C(O)c1cc(O)cc(O)c1 [3,5-dihydroxybenzoic acid (3,5-DHB), 3,5-dihydroxybenzoic acid]",SEV (%),expert panel members [1],5.3%
"O=C(O)c1ccc(O)cc1 [4-hydroxybenzoic acid (4-HB), 4-hydroxybenzoic acid]",SEV (%),expert panel members [1],5.2%
same,"SEV of solution containing 500 ppm 2,4-DHB and 500 ppm of a second sweetener potentiator",expert panel members [1],6.2%
"O=C(O)c1cccc(O)c1 [Example 3-HB, 3-hydroxybenzoic acid]",SEV (%),expert panel members [1],6.9%
same,maximum sweetness attainable (SEV),expert panel members [1],about 7.9 % SEV
same,effect on sweetness of saccharin solution,expert panel members [3],"enhances the sweetness to a greater degree alone than in combination with 2,4-DHB"
same,sucrose reduction,panel member,25%
Nc1cccc(C(=O)O)c1 [3-aminobenzoic acid],SEV (%),expert panel members [1],about 7%
